Assay results taken from patent US20060100195A1, “Remedies for urinary frequency” (priority 2001, published 2006).

How the values were obtained:
[1] = system: pollakiuria model rats induced by sulprostone; experiment: Suppression of increase in urinary frequency of rats induced by sulprostone; format: in vivo, rat; settings: awake rats
[2] = system: pollakiuria model rats induced by acetic acid; experiment: Suppression of increase in urinary frequency in rats induced by acetic acid; format: in vivo, rat; settings: awake rats; 10 mg/kg orally; dosed 2 days after 1% acetic acid into bladder; frequency within 6 hours
Procedure: (ii) Experiment of Suppression of an Increase in Urinary Frequency in Rats Induced by Acetic Acid
Abdomen of a rat was subjected to a midline incision under anesthetization with pentobarbital (50 mg/kg, i.p.) and bladder was exposed. Urine in the bladder was removed using a syringe equipped with an intraocular injection needle (30 G×¾). After that, 0.5 ml of 1% acetic acid solution was injected into the bladder using a syringe equipped with an intraocular injection needle (30 G×¾) and injury was closed.
With regard to measurement of urination of the animal, the animal was placed in a metabolism cage and urination was recorded with the lapse of time using a urination measuring apparatus (K. K. Neuroscience).
When acetic acid was injected into bladder of rat, urination frequency increased continuously and pollakiuria where each urinated amount decreased was induced. Each of the test drugs was evaluated using the stimulated bladder.
Evaluation of the test drug was conducted in such a manner that the test drug was administered after 2 days from injection of acetic acid into the bladder and suppressing rates for the frequency increased within 6 hours thereafter was compared. Suppressing rate (%) of frequency by each compound was determined by the following formula. […]

For `Cc1cc(Cl)ccc1S(=O)(=O)NC[C@H]1C2CCC(CC2)[C@@H]1/C=C\CCCC(=O)O` [(1), 6-[(2S,3S)-3-(4-chloro-2-methylphenylsulfonyl-aminomethyl)bicyclo[2.2.2]octan-2-yl]-5Z-hexenoic acid], the “Inhibiting Rate (%) for Urinary Frequency, Sulprostone-Induced Pollakiuria Model” value ([1]; 10 mg/kg orally, sulprostone 200 μg/kg s.c. 30 minutes later, frequency over 3 hours) was 58.0 ± 12.0 % and the “Inhibiting Rate (%) for Urinary Frequency, Acetic Acid-Induced Pollakiuria Model” value [2] was 44.3 ± 12.4 %.

In the case of `Cl.O=C(CCc1ccncc1)NNC(=O)N1Cc2ccccc2Oc2ccc(Cl)cc21` [(2), 8-chlorodibenz[b,f][1.4]oxazepine-10(11H)-carboxylic acid.2-[1-oxo-3-(4-pyridinyl)propyl]hydrazide.monohydrochloride], the “Inhibiting Rate (%) for Urinary Frequency, Sulprostone-Induced Pollakiuria Model” value ([1]; 10 mg/kg subcutaneously, frequency over 3 hours after sulprostone) is reported as 38.2 ± 4.6 %.

In the case of `CCN(Cc1cc(Cl)ccc1OCC(C)C)c1ccc(C(=O)NS(=O)(=O)c2c(C)noc2C)nn1` [(3), N-(3,5-dimethylisoxazol-4-ylsulfonyl)6-[N-(5-chloro-2-(isobutyloxy)benzyl)-N-ethylamino]pyridazine-3-carboxamide], the “Inhibiting Rate (%) for Urinary Frequency, Sulprostone-Induced Pollakiuria Model” value ([1]; 3 mg/kg subcutaneously, frequency over 3 hours after sulprostone) is reported as 49.2 ± 2.8 %.
